# Where two headings read alike, the source gives them in different places.
# How the values were obtained:
# [1] = Pharmacokinetics following a single dose in rat (1 mg/kg iv, 3 mg/kg oral), LC-MS/MS, one-compartment model; assay type: in vivo; settings: for bioavailability / clearance / Vd / half-life: plasma; for bioavailability: 3 mg/kg oral in 1% CMC vs 1 mg/kg iv, one-compartment model, read-out: F (%) oral bioavailability; for clearance / Vd / half-life: iv, 1 mg/kg; for Vd: read-out: Vss (L/kg) volume of distribution; for AUC(0-t): blood, single oral dose 3 mg/kg in 1% CMC, Tables 7-9, read-out: Exposure (min · ng/ml), oral exposure AUC 0-t (converted)
# Experimental: Compounds were administered as a single dose (either 1 mg/kg bodyweight in 5% DMSO via the intravenous route or 3 mg/kg in 1% carboxymethylcellulose via the oral route) to three adult rats (using different rats for each compound and each route of administration).
# Blood was then sampled at various time points (including just prior to dose administration) out to 24 hrs post dose, and the level of the various compounds was assessed using a validated LC-MS/MS assay. Briefly, 3-5 μl of the deproteinised sample was applied to a Waters Atlantis (C18 20×2.1 mm, 3 μm bead size) reverse phase chromatography column equilibrated in 0.1% formic acid in 95:5 water:actetonitrile. Over 3.5 minutes bound material was gradient eluted reaching 0.1% formic acid in 5:95 water:acetonitrile, followed by a step gradient back to 0.1% formic acid in 95:5 water:acetonitrile. The column eluent was then directed to an Applied Biosystems API 4000/3200 QTrap MS/MS mass spectrometer, with a TurboIonspray™ ion source operating in positive ion mode. The interface temperature was set at 650° C., with a 40 ms dwell time for each MRM transition, monitoring the following ions:
# The internal standard in each determination was the related compound (S)-3-(2′,2′-dimethyl-propanoylamino)-caprolactam, which was spiked into the sample prior to deproteinization. The lower limit of quantitation (LLOQ) for this assay was 2.4 ng/ml for each compound except (I′), where it was 38.1 ng/ml.
# Following LC-MS/MS analysis of each collected sample, the pharmacokinetic disposition of the compound was modelled using Kinetica software, a well known software package for such applications.
# Compounds (VI) and (VII) were subject to pharmacokinetic analysis in rat using exactly the same protocols previous applied for compounds (I) through (V) in example 1.
# We therefore subjected (VIII) to pharmacokinetic analysis in rat using exactly the same protocols previous applied for compounds (I′) through (VII) in examples 1 and 7.
# The isolated (R)-enantiomer of (I) was therefore synthesised (exactly as described herein for the isolated (S)-enantiomer, but replacing the (S)-ornithine starting material with commercially available (R)-ornithine of high stereochemical purity), and the PK properties of this agent, in rat, was determined using the identical methodology described above (see Examples 1, 7 and 8).
# [2] = Identification of the primary metabolites in pooled rat urine by LC-MS-MS; assay type: in vivo; settings: single oral dose 3 mg/kg in 1% CMC, pooled urine over 24 hrs, qualitative
# Experimental: (§1) Urine was collected from rats exposed to a single oral dose (3 mg/kg in 1% CMC) of each compound over a 24 hour period in metabolic cages. The pooled urine sample was then subjected to full scan mass spectral analysis, using the same LC-MS conditions as described in example 1 above. Further MS-MS analysis of the product ions was then performed, and likely fragmentations/re-arrangements assigned from the publicly available Metabolite ID database.
# For the major metabolites, the assigned structures were confirmed by synthesis of authentic samples, using methods well known in the art, which were subject to LC-MS-MS analysis under the same conditions as the urine samples.
# Note that metabolite ID studies provide only qualitative estimates of the relative amounts of the different metabolites present, and separately validated assays with appropriate internal standards would be required to quantitate each metabolite species.
# [3] = Distribution of unchanged compound into tissues and urine 24 hrs after a single dose in rat; assay type: in vivo
# Experimental: as §1
# To provide a quantitative estimate of the degree of metabolism suffered by each of the compounds tested, the amount of unchanged parent compound in urine was measured using the same validated LC-MS assay described in example 1, using (S)-3-(2′,2′-dimethylpropanoylamino)-caprolactam as an internal standard. In addition, the level of compounds in various target tissues was also determined.
# [4] = Stability in serum in vitro; assay type: in vitro ADME; settings: human serum; 37° C.
# Description: As an approach to identifying such stable analogs, various derivatives of (S)-3-(undec-10-enoyl)-aminoglutarimide have been tested for their stability in serum.
# [5] = Solubility as observed (water, dosing vehicle); assay type: physicochemical; settings: 5% DMSO in saline
# [6] = test system: LPS-induced TNF-α production; experiment: Sub-lethal LPS-induced endotoxemia in mice, serum TNF-α by ELISA; assay type: in vivo; settings: for inhibition of LPS-induced TNF-α production (reference agents, previously shown): mice, dose not stated
# Experimental: FIGS. 5A-5E show representative dose response curves for the inhibition of LPS induced TNF-α production in vivo in a murine model of sub-lethal endotoxemia. In each experiment, groups of six mice received pre-treatment with the five compounds (FIG. 5A: (II); FIG. 5B: (III); FIG. 5C: (V); FIG. 5D: (I′) and FIG. 5E: (IV)) at various doses, via either the oral route (circles) or subcutaneous route (triangles). 30-60 mins later, animals were challenged with LPS via the intraperitoneal route, and serum was prepared from a terminal bleed 3 hours later. The level of TNF-α in the blood was measured by ELISA, and the degree of inhibition of LPS-induced TNF-α production (calculated as the concentration of TNF-α in mice exposed to LPS minus the concentration of TNF-α in mice which received a sham exposure to endotoxin-free PBS) is shown on the Y-axis of each graph as the mean of six animals, with whiskers representing SEMs. The concentration of TNF-α in mice receiving LPS but no BSCI treatment was typically 5,000 to 6,000 pg/ml on average (compared to <10 pg/ml in unchallenged mice). The ED50 was estimated by linear interpolation of the presented graphs. The X-axis of each graph represents the dose of each compound administered to each mouse in the group in units of mg (1E-07 to 1).
# In this assay, mice are given a non-specific pro-inflammatory challenge using bacterial endotoxin (LPS), and the extent of the systemic inflammatory response (measured by serum levels of the central pro-inflammatory cytokine TNF-α, which is essentially absent from the blood under normal conditions, but is rapidly elevated in response to a wide range of inflammatory stimuli). We have selected this model even though it is not, itself, a particularly close model of any human inflammatory disease condition, but because TNF-α is known to be important in very many diseases (including rheumatoid arthritis, autoimmune disorders, Crohn's Disease, atherosclerosis, asthma and many more). Consequently, agents which suppress TNF-α production are already used clinically (e.g. Enbrel™ and other anti-TNF-α antibody products) to treat a wide range of such diseases.
# Mice (in groups of 6) were pretreated with various doses of each compound, either by the subcutaneous route 30 mins prior to LPS challenge, or by the oral route (via gavage) 60 mins prior to LPS. The mice were then challenged with an intraperitoneal injection of 750 μg of bacterial LPS and sacrificed 3 hours later. Serum was prepared from a terminal bleed by cardiac puncture, and the concentration of TNF-α is determined by ELISA (R&D Systems). In each experiment, a group of 6 mice receive no LPS to act as a negative control, and a second group receive only LPS (with no candidate inhibitor). […]
# [7] = test system: chemokine-induced migration; settings: read-out: ED50 inhibition of chemokine-induced migration in vitro; cited from earlier work
# [8] = test system: leukocytes in BAL fluid; experiment: Ovalbumin-induced lung inflammation model of asthma, cell counts in BAL fluid; assay type: in vivo, Brown Norway rats; settings: 30 mg/kg daily via the oral route
# Description: Bars represent mean cell counts, shown on the Y axis in units of 10^6 cells, for groups of […] with whiskers representing SEM; * p<0.01 versus ‘sensitised’ using Student's unpaired t-test assuming equal variance, with two tails). The horizontal line represents the average number of leukocytes present in BAL fluid from the lungs of unchallenged rats. All rats in the remaining three groups received the same sensitisation and challenge regimen, but were either treated with vehicle only (‘Sensitised’), or with compound (I′) at 0.3 mg/kg bodyweight or with monteleukast (‘Singulair™’) at 30 mg/kg bodyweight, all administered daily by oral gavage.
# Adult Brown Norway rats (200-300 g body weight; n=10 per group) were sensitised by a single intraperitoneal injection of 0.1 mg Ovalbumin on day 0. Each rat then received an intratracheal challenge with a solution of 1% ovalbumin (w/v) on day 8, and with 2% ovalbumin (w/v) on days 15, 18 and 21. The animals were then sacrificed 3 hours after the final challenge on day 21. […]
# On sacrifice, total lung leukocyate recruitment was assessed by performing a broncheoalveolar lavage (BAL) using 4 lots of 3 ml sterile phosphate-buffered saline introduced through a tracheal cannula. For each animal, the BAL washes were combined, and the total cell population counted (using a haemocytometer). […]
# [9] = intravenous dosing 1 mg/kg, averaged across three rats, read-out: t1/2 (mins) dominant plasma half-life
compound,measurement,setting,value
"CC1(C(=O)N[C@H]2CCCCNC2=O)CCCCC1 [(III), 3-(1′-methylcyclohexylcarbonylamino)-caprolactam]",bioavailability,[1]; averaged across three rats,5%
same,clearance,[1]; averaged across three rats,55 mL/min/kg
same,Vd,[1]; averaged across three rats,0.6 L/kg
same,half-life,[1]; [9],11 min
same,major metabolites / route of metabolism detected in urine,[2],cytochrome P450-mediated hydroxylation
"CC(C)(C)S(=O)(=O)N[C@H]1CCCCNC1=O [(IV), 3-(1′,1′-dimethylethylsulfonylamino)-caprolactam]",major metabolites / route of metabolism detected in urine,[2],the major metabolite could not be identified
same,Urine (ng/ml) unchanged parent compound,[3]; 24 hrs after a single oral dose 3 mg/kg in 1% CMC,1010 ng/mL
same,"unchanged parent compound recovered in urine, % of the injected dose","[3]; single oral dose 3 mg/kg in 1% CMC, 24 hrs",less than 10%
C=CCCCCCCCCC(=O)[C@@H]1CCCNC1=O [(S)-3-(undec-10-enoyl)-tetrahydropyridin-2-one],time completely stable in serum,[4],at least 7 days
"O=C1NCCCC1NC(=O)C12CC3CC(CC(C3)C1)C2 (stereo not drawn) [(VII), 3-(adamanatane-1-carbonylamino)-tetrahydropyridin-2-one]",AUC(0-t),[1],542 ng·h/mL
same,bioavailability,[1]; averaged across three rats,35%
same,clearance,[1]; averaged across three rats,31.1 mL/min/kg
same,Vd,[1]; averaged across three rats,0.7 L/kg
same,half-life,[1]; [9],20 min
same,half-life,[1]; read-out: plasma half-life,< 60 min
"CCCCCCCCCCC(C)(C)C(=O)NC1CCCNC1=O (stereo not drawn) [Compound (VI), 3-(2′,2′-dimethyldodecanoylamino)-tetrahydropyridin-2-one]",AUC(0-t),[1],183 ng·h/mL
same,bioavailability,[1]; averaged across three rats,16%
same,clearance,[1]; averaged across three rats,40.3 mL/min/kg
same,Vd,[1]; averaged across three rats,1.95 L/kg
same,half-life,[1]; [9],46 min
same,half-life,[1]; read-out: plasma half-life,< 60 min
same,solubility in iv dosing vehicle,[5],completely insoluble
"C=CCCCCCCCCC(=O)N[C@H]1CCC(=O)NC1=O [NR58,4, (S)-3-(undec-10-enoyl)-aminoglutarimide]","fold less potent in vivo than 3-(2′,2′-dimethylpropanoylamino)-tetrahydropyridin-2-one",[6]; models of acute inflammation such as LPS-induced endotoxemia,at least 250 fold
same,EC50,[7],5 nM
C[C@@H]1C[C@H]2[C@@H]3CCC4=CC(=O)C=C[C@]4(C)[C@@]3(F)[C@@H](O)C[C@]2(C)[C@@]1(O)C(=O)CO [dexamethasone],"inhibition of LPS-induced TNF-α production (reference agents, previously shown)",[6],at least 90%
CC(C)(O)c1ccccc1CC[C@@H](SCC1(CC(=O)O)CC1)c1cccc(/C=C/c2ccc3ccc(Cl)cc3n2)c1 [monteleukast],effect on the number of leukocytes in the BAL washes,[8],significantly reduced the number of leukocytes in the BAL washes
O=C1CCC(N2C(=O)c3ccccc3C2=O)C(=O)N1 (stereo not drawn) [thalidomide],"inhibition of LPS-induced TNF-α production (reference agents, previously shown)",[6],about 60%

# — patent US20150141460A1, “Anti-inflammatory Compositions” (Cambridge Enterprise Limited, priority 2007, published 2015)
